Measured values: US8871754B2, “Compounds and compositions for the treatment of parasitic diseases” (IRM LLC, priority 2012, dated 2014)

What follows are molecules tested on P. falciparum (NF54 or 3D7 strain) in infected human erythrocytes (assay: Assay for P. falciparum proliferation in infected human blood cells (SYBR Green)). Details: Plasmodium falciparum, Erythrocyte; NF54 or 3D7 strain, 72 hours, SYBR Green fluorescence; read-out: EC50 (nM), inhibitory efficacy in delaying P. falciparum proliferation in infected human blood cells.
Assay type: cell-based
Experimental: Assay for P. falciparum Proliferation in Infected Human Blood Cells
Compounds of the invention can be assayed to measure their capacity to inhibit proliferation of P. falciparum parasitemia in infected red blood cells. This parasite proliferation assay measures the increase in parasite DNA content using a DNA intercalating dye, SYBR Green® (INVITROGEN®) which has a high affinity for double stranded DNA.
NF54 or 3D7 P. falciparum strain is grown in complete culturing media until parasitemia reaches 3% to 8% with O+ human erythrocytes. […] 20 μl of screening media is dispensed into 384 well assay plates. 50 nl of compounds of the invention (in DMSO), including antimalarial controls (mefloquine, pyrimethamine and artemisinin), are then transferred into the assay plates, as well as DMSO alone to serve as a negative control for inhibition. Then 30 μl of a suspension of a NF54 or 3D7 P. falciparum infected erythrocytes in screening media is dispensed into the assay plates such that the final hematocrit is 2.5% with a final parasitemia of 0.3%. The plates are placed in a 37° C. incubator for 72 hours in a low oxygen environment containing 93% N2, 4% CO2, and 3% O2 gas mixture. 10 μl of lysis buffer (saponin, triton-X, EDTA) containing a 10× solution of SYBR Green I® in RPMI media is dispensed into the plates. The plates are lidded and kept at room temperature overnight for the lysis of the infected red blood cells. The fluorescence intensity is measured (excitation […], emission 530 nm) using the Envision™ system (Perkin Elmer). The percentage inhibition of 50%, […], is calculated for each compound.

| SMILES | EC50 [nM] |
| --- | --- |
| CN(C(=O)Nc1ccc(F)cc1)c1ccn2ncc(-c3ccc(C(F)(F)F)cc3)c2c1 [Example 47, 3-(4-fluorophenyl)-1-methyl-1-(3-(4-(trifluoromethyl)phenyl)pyrazolo[1,5-a]pyridin-5-yl)urea] | > 9000 |
| CN(C(=O)c1ccc(C(C)(F)F)nc1)c1ccn2ncc(-c3ccc(C(F)(F)F)cc3)c2c1 [Example 48, 6-(1,1-difluoroethyl)-N-methyl-N-(3-(4-(trifluoromethyl)phenyl)pyrazolo[1,5-a]pyridin-5-yl)nicotinamide] | 288 |
| CN(C(=O)c1ccc(C2CC2)nc1)c1ccn2ncc(-c3ccc(C(F)(F)F)cc3)c2c1 [Example 49, 6-cyclopropyl-N-methyl-N-(3-(4-(trifluoromethyl)phenyl)pyrazolo[1,5-a]pyridin-5-yl)nicotinamide] | 2290 |
| CN(C(=O)c1ccc(C2CC2)cc1)c1ccn2ncc(-c3ccc(C(F)(F)F)cc3)c2c1 [Example 50, 4-cyclopropyl-N-methyl-N-(3-(4-(trifluoromethyl)phenyl)pyrazolo[1,5-a]pyridin-5-yl)benzamide] | 3850 |
| CN(C(=O)c1ccc(F)cn1)c1ccn2ncc(-c3ccc(C(F)(F)F)cc3)c2c1 [Example 51, 5-fluoro-N-methyl-N-(3-(4-(trifluoromethyl)phenyl)pyrazolo[1,5-a]pyridin-5-yl)picolinamide] | 60 |
| Cc1ccc(-c2cnn3ccc(C(=O)N(C)c4ccc(C#N)cn4)cc23)nc1 [Example 59, N-(5-cyanopyridin-2-yl)-N-methyl-3-(5-methylpyridin-2-yl)pyrazolo[1,5-a]pyridine-5-carboxamide] | 228 |
| COc1ccc(-c2cnn3ccc(C(=O)N(C)c4ccc(C#N)cn4)cc23)nc1 [Example 60, N-(5-cyanopyridin-2-yl)-3-(5-methoxypyridin-2-yl)-N-methylpyrazolo[1,5-a]pyridine-5-carboxamide] | 683 |
| Cc1ccc(N(C)C(C)c2ccn3ncc(-c4ccc(C(N)=O)cc4)c3c2)nc1 (centres unmarked) [Example 65, 4-(5-(1-(methyl(5-methylpyridin-2-yl)amino)ethyl)pyrazolo[1,5-a]pyridin-3-yl)benzamide] | 504 |
| CC(c1ccn2ncc(-c3ccc(C(N)=O)cc3)c2c1)N1C(=O)COc2cc(F)ccc21 (centres unmarked) [Example 66, 4-(5-(1-(7-fluoro-3-oxo-2H-benzo[b][1,4]oxazin-4(3H)-yl)ethyl)pyrazolo[1,5-a]pyridin-3-yl)benzamide] | 49 |
| CC(=O)Nc1ccc(-c2cnn3ccc(C(C)N(C)c4ccc(C)cn4)cc23)cc1 (centres unmarked) [Example 68, N-(4-(5-(1-(methyl(5-methylpyridin-2-yl)amino)ethyl)pyrazolo[1,5-a]pyridin-3-yl)phenyl)acetamide] | 6750 |
| CNC(=O)c1ccc(-c2cnn3ccc(C(=O)N4CCOc5cc(F)ccc54)cc23)cc1 [Example 73, 4-(5-(7-fluoro-3,4-dihydro-2H-benzo[b][1,4]oxazine-4-carbonyl)pyrazolo[1,5-a]pyridin-3-yl)-N-methylbenzamide] | > 10000 |

Now those with a lower EC50, led by results:

| EC50 [nM] | SMILES |
| --- | --- |
| 1 | C[C@@H](N)C(=O)Nc1ccc(-c2cnn3ccc(C(=O)N(C)c4ccc(C#N)cc4)cc23)cc1 [Example 44, (R)-3-(4-(2-aminopropanamido)phenyl)-N-(4-cyanophenyl)-N-methylpyrazolo[1,5-a]pyridine-5-carboxamide] |
| 16 | CC(C)[C@H](N)C(=O)Nc1ccc(-c2cnn3ccc(C(=O)N(C)c4ccc(C#N)cc4)cc23)cc1 [Example 45, (S)-3-(4-(2-amino-3-methylbutanamido)phenyl)-N-(4-cyanophenyl)-N-methylpyrazolo[1,5-a]pyridine-5-carboxamide] |
| 18 | CN(C(=O)c1ccn2ncc(-c3ccc(NC(=O)[C@@H](N)C4CCCCC4)cc3)c2c1)c1ccc(C#N)cc1 [Example 46, (S)-3-(4-(2-amino-2-cyclohexylacetamido)phenyl)-N-(4-cyanophenyl)-N-methylpyrazolo[1,5-a]pyridine-5-carboxamide] |
| 13 | CN(C(=O)c1ccc(S(C)(=O)=O)cc1)c1ccn2ncc(-c3ccc(C(F)(F)F)cc3)c2c1 [Example 52, N-methyl-4-(methylsulfonyl)-N-(3-(4-(trifluoromethyl)phenyl)pyrazolo[1,5-a]pyridin-5-yl)benzamide] |
| 1 | CN(C(=O)c1ccn2ncc(-c3cnc4[nH]ccc4c3)c2c1)c1ccc(C#N)cn1 [Example 53, N-(5-cyanopyridin-2-yl)-N-methyl-3-(1H-pyrrolo[2,3-b]pyridin-5-yl)pyrazolo[1,5-a]pyridine-5-carboxamide] |
| 32 | CN(C(=O)c1ccc(Cl)cc1)c1ccn2ncc(-c3ccc(C(F)(F)F)cc3)c2c1 [Example 55, 4-chloro-N-methyl-N-(3-(4-(trifluoromethyl)phenyl)pyrazolo[1,5-a]pyridin-5-yl)benzamide] |
| 8 | CN(C(=O)c1ccc(F)cc1)c1ccn2ncc(-c3ccc(C(N)=O)cc3)c2c1 [Example 56, N-(3-(4-carbamoylphenyl)pyrazolo[1,5-a]pyridin-5-yl)-4-fluoro-N-methylbenzamide] |
| 4 | CNc1nnc(-c2ccc(-c3cnn4ccc(N(C)C(=O)c5ccc(F)cc5)cc34)cc2)s1 [Example 57, 4-fluoro-N-methyl-N-(3-(4-(5-(methylamino)-1,3,4-thiadiazol-2-yl)phenyl)pyrazolo[1,5-a]pyridin-5-yl)benzamide] |
| 30 | CN(C(=O)c1ccn2ncc(-c3cnc4[nH]ccc4c3)c2c1)c1ccc(S(C)(=O)=O)cn1 [Example 58, N-methyl-N-(5-(methylsulfonyl)pyridin-2-yl)-3-(1H-pyrrolo[2,3-b]pyridin-5-yl)pyrazolo[1,5-a]pyridine-5-carboxamide] |
| 20 | CN(C(=O)c1ccn2ncc(-c3ccc(C(N)=O)cn3)c2c1)c1ccc(C#N)cn1 [Example 61, 3-(5-carbamoylpyridin-2-yl)-N-(5-cyanopyridin-2-yl)-N-methylpyrazolo[1,5-a]pyridine-5-carboxamide] |
| 6 | Cc1ccc(N(C)C(=O)c2ccn3ncc(-c4ccc(C(N)=O)cc4)c3c2)nc1 [Example 63, 3-(4-carbamoylphenyl)-N-methyl-N-(5-methylpyridin-2-yl)pyrazolo[1,5-a]pyridine-5-carboxamide] |
| 20 | CNC(=O)c1ccc(-c2cnn3ccc(C(=O)N(C)c4ccc(F)cc4)cc23)cc1 [Example 64, N-(4-fluorophenyl)-N-methyl-3-(4-(methylcarbamoyl)phenyl)pyrazolo[1,5-a]pyridine-5-carboxamide] |
| 13 | CC(=O)Nc1ccc(-c2cnn3ccc(C(=O)N(C)c4ccc(C#N)cn4)cc23)cc1 [Example 69, 3-(4-acetamidophenyl)-N-(5-cyanopyridin-2-yl)-N-methylpyrazolo[1,5-a]pyridine-5-carboxamide] |
| 3 | NC(=O)c1ccc(-c2cnn3ccc(C(=O)N4CCOc5cc(F)ccc54)cc23)cc1 [Example 71, 4-(5-(7-fluoro-3,4-dihydro-2H-benzo[b][1,4]oxazine-4-carbonyl)pyrazolo[1,5-a]pyridin-3-yl)benzamide] |
| 5 | CC1COc2cc(F)ccc2N1C(=O)c1ccn2ncc(-c3ccc(C(N)=O)cc3)c2c1 (centres unmarked) [Example 72, 4-(5-(7-fluoro-3-methyl-3,4-dihydro-2H-benzo[b][1,4]oxazine-4-carbonyl)pyrazolo[1,5-a]pyridin-3-yl)benzamide] |
